Assay results as given in US9493446B2, “Orexin receptor antagonists which are [ortho bi-(hetero-)aryl]-[2-(meta bi-(hetero-)aryl)-pyrrolidin-1-yl]-methanone derivatives” (Actelion Pharmaceuticals Ltd, priority 2012, dated 2016).

How the values were obtained:
[1] = molecular target: human orexin-2 receptor (Homo sapiens (Human), UniProt O43614); assay: Intracellular calcium measurement (FLIPR), CHO cells expressing human orexin-2 receptor, 3 nM orexin-A; type: cell-based; details: CHO cells expressing human orexin-2 receptor, FLIPR, 3 nM orexin-A; geometric mean if determined several times; read-out: IC50 OX2
Chain of human orexin-2 receptor (O43614 whole entry): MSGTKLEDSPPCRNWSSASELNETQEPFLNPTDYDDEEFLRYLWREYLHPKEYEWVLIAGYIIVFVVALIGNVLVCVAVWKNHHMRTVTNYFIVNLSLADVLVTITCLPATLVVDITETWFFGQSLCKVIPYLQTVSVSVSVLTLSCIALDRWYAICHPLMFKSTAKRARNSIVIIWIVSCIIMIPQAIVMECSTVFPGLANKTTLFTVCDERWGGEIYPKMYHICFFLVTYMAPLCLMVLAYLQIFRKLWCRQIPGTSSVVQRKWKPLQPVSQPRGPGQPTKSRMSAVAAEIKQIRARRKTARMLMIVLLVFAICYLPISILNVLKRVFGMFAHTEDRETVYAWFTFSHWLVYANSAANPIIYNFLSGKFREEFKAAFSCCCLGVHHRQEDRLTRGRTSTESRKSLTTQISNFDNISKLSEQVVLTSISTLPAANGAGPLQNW
Description: (§1) In Vitro Assay: Intracellular Calcium Measurements:
(§2) Chinese hamster ovary (CHO) cells expressing the human orexin-1 receptor and the human orexin-2 receptor, respectively, are grown in culture medium (Ham F-12 with L-Glutamine) containing 300 μg/mL G418, 100 U/mL penicillin, 100 μg/mL streptomycin and 10% heat inactivated fetal calf serum (FCS). The cells are seeded at 20,000 cells/well into 384-well black clear bottom sterile plates (Greiner). The seeded plates are incubated overnight at 37° C. in 5% CO2.
(§3) Human orexin-A as an agonist is prepared as 1 mM stock solution in MeOH: water (1:1), diluted in HBSS containing 0.1% bovine serum albumin (BSA), NaHCO3: 0.375 g/L and 20 mM HEPES for use in the assay at a final concentration of 3 nM.
(§4) Antagonists are prepared as 10 mM stock solution in DMSO, then diluted in 384-well plates using DMSO followed by a transfer of the dilutions into in HBSS containing 0.1% bovine serum albumin (BSA), NaHCO3: 0.375 g/L and 20 mM HEPES. On the day of the assay, 50 μL of staining buffer (HBSS containing 1% FCS, 20 mM HEPES, NaHCO3: 0.375 g/L, 5 mM probenecid (Sigma) and 3 μM of the fluorescent calcium indicator fluo-4 AM (1 mM stock solution in DMSO, containing 10% pluronic) is added to each well. The 384-well cell-plates are incubated for 50 min at 37° C. in 5% CO2 followed by equilibration at rt for 30 min before measurement.
(§5) Within the Fluorescent Imaging Plate Reader (FLIPR Tetra, Molecular Devices), antagonists are added to the plate in a volume of 10 μL/well, incubated for 120 min and finally 10 μL/well of agonist is added. Fluorescence is measured for each well at 1 second intervals, and the height of each fluorescence peak is compared to the height of the fluorescence peak induced by 3 nM orexin-A with vehicle in place of antagonist. […] Optimized conditions were achieved by adjustment of pipetting speed and cell splitting regime. The calculated IC50 values may fluctuate depending on the daily cellular assay performance. Fluctuations of this kind are known to those skilled in the art.

[2] = molecular target: orexin-1 (Homo sapiens (Human), UniProt O43613); assay: Intracellular calcium measurement (FLIPR), CHO cells expressing human orexin-1 receptor, 3 nM orexin-A; type: cell-based; details: CHO cells expressing human orexin-1 receptor, FLIPR, 3 nM orexin-A; geometric mean if determined several times; read-out: IC50 OX1
Chain of orexin-1 (O43613 whole entry): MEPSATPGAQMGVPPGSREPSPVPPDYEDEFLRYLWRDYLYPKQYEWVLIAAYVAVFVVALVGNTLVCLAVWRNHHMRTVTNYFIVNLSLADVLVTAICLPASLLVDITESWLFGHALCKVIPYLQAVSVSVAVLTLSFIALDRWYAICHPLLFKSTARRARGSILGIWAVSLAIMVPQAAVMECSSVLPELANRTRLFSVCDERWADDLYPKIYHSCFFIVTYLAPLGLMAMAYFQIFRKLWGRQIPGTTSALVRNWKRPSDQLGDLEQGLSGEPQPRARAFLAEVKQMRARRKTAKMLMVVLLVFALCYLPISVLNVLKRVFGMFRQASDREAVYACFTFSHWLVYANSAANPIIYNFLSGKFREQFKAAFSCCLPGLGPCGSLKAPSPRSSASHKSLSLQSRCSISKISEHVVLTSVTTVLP
Description: as §1, §2, §3, §4, §5

| Compound | IC50 [1] [nM] | IC50 [2] [nM] |
| --- | --- | --- |
| Cc1ccc(-n2nccn2)c(C(=O)N2CCC[C@H]2c2nc(-c3ccccc3OC(F)(F)F)co2)c1 [Example 460, (5-Methyl-2-[1,2,3]triazol-2-yl-phenyl)-{(S)-2-[4-(2-trifluoromethoxy-phenyl)-oxazol-2-yl]-pyrrolidin-1-yl}-methanone] | 16 | 10 |
| Cc1ccc(-n2nccn2)c(C(=O)N2CCC[C@H]2c2ncc(-c3ccccc3)o2)c1 [Example 461, (5-Methyl-2-[1,2,3]triazol-2-yl-phenyl)-[(S)-2-(5-phenyl-oxazol-2-yl)-pyrrolidin-1-yl]-methanone] | 465 | 115 |
| Cc1ccc(-n2nccn2)c(C(=O)N2CCC[C@H]2c2nnc(-c3ccccc3)[nH]2)c1 [Example 463, (5-Methyl-2-[1,2,3]triazol-2-yl-phenyl)-[(S)-2-(5-phenyl-4H-[1,2,4]triazol-3-yl)-pyrrolidin-1-yl]-methanone] | 209 | 704 |
| COc1ccccc1-c1nnc([C@@H]2CCCN2C(=O)c2cc(C)ccc2-n2nccn2)[nH]1 [Example 464, {(S)-2-[5-(2-Methoxy-phenyl)-4H-[1,2,4]triazol-3-yl]-pyrrolidin-1-yl}-(5-methyl-2-[1,2,3]triazol-2-yl-phenyl)-methanone] | 124 | 49 |
| Cc1cc(C)cc(-c2nnc([C@@H]3CCCN3C(=O)c3cc(C)ccc3-n3nccn3)[nH]2)c1 [Example 511, {(S)-2-[5-(3,5-Dimethyl-phenyl)-4H-[1,2,4]triazol-3-yl]-pyrrolidin-1-yl}-(5-methyl-2-[1,2,3]triazol-2-yl-phenyl)-methanone] | 113 | 642 |
| COc1ccccc1-c1cnc([C@@H]2CCCN2C(=O)c2cc(C)ccc2-n2nccn2)[nH]1 [Example 516, {(S)-2-[5-(2-Methoxy-phenyl)-1H-imidazol-2-yl]-pyrrolidin-1-yl}-(5-methyl-2-[1,2,3]triazol-2-yl-phenyl)-methanone] | 18 | 18 |
| Cc1ccc(-n2nccn2)c(C(=O)N2CCC[C@H]2c2cc(-c3ccccc3)n[nH]2)c1 [Example 530, (5-Methyl-2-[1,2,3]triazol-2-yl-phenyl)-[(S)-2-(5-phenyl-2H-pyrazol-3-yl)-pyrrolidin-1-yl]-methanone] | 222 | 386 |
| Cc1ccc(-n2nccn2)c(C(=O)N2CCC[C@H]2c2ncn(-c3ccccc3)n2)c1 [Example 535, (5-Methyl-2-[1,2,3]triazol-2-yl-phenyl)-[(S)-2-(1-phenyl-1H-[1,2,4]triazol-3-yl)-pyrrolidin-1-yl]-methanone] | 363 | 47 |
| Cc1ccc(-n2nccn2)c(C(=O)N2CCC[C@H]2c2cn(-c3ccccc3)nn2)c1 [Example 536, (5-Methyl-2-[1,2,3]triazol-2-yl-phenyl)-[(S)-2-(1-phenyl-1H-[1,2,3]triazol-4-yl)-pyrrolidin-1-yl]-methanone] | 2140 | 3430 |
| C[C@@]1(c2nc(-c3ccccc3)no2)CCCN1C(=O)c1ccccc1-n1nccn1 [Example 537, [(S)-2-Methyl-2-(3-phenyl-[1,2,4]oxadiazol-5-yl)-pyrrolidin-1-yl]-(2-[1,2,3]triazol-2-yl-phenyl)-methanone] | 2880 | 3980 |
| Cc1ccc(-n2nccn2)c(C(=O)N2CCC[C@@]2(C)c2nc(-c3ccccc3)no2)c1 [Example 540, [(S)-2-Methyl-2-(3-phenyl-[1,2,4]oxadiazol-5-yl)-pyrrolidin-1-yl]-(5-methyl-2-[1,2,3]triazol-2-yl-phenyl)-methanone] | 581 | 211 |
| Cc1ccc(-n2nccn2)c(C(=O)N2CCC[C@@]2(C)c2nc(-c3cccc(Cl)c3C)no2)c1 [Example 541, {(S)-2-[3-(3-Chloro-2-methyl-phenyl)-[1,2,4]oxadiazol-5-yl]-2-methyl-pyrrolidin-1-yl}-(5-methyl-2-[1,2,3]triazol-2-yl-phenyl)-methanone] | 114 | 104 |
| Cc1ccc(-n2nccn2)c(C(=O)N2CCC[C@@]2(C)c2nnc(-c3ccccc3OC(F)(F)F)[nH]2)c1 [Example 542, (5-Methyl-2-[1,2,3]triazol-2-yl-phenyl)-{(S)-2-methyl-2-[5-(2-trifluoromethoxy-phenyl)-4H-[1,2,4]triazol-3-yl]-pyrrolidin-1-yl}-methanone] | 28 | 33 |
| O=C(c1cccs1)N1CCC[C@H]1c1nc(-c2ccccc2)no1 [Ref 1] | > 10000 | > 8500 |
| O=C(c1cccs1)N1CCC[C@H]1c1nc(-c2cccc(Cl)c2)no1 [Ref 2] | 7230 | 4260 |
| Cc1ccccc1-c1noc([C@@H]2CCCN2C(=O)c2cccs2)n1 [Ref 3] | > 10000 | 6270 |
| O=C(c1ccoc1)N1CCC[C@H]1c1nc(-c2ccccc2)no1 [Ref 4] | > 10000 | > 8500 |
| O=C(c1ccoc1)N1CCC[C@H]1c1nc(-c2cccc(Cl)c2)no1 [Ref 5] | > 10000 | > 8500 |
| Cc1ccccc1-c1noc([C@@H]2CCCN2C(=O)c2ccoc2)n1 [Ref 6] | > 10000 | > 8500 |
| Cc1onc(-c2ccccc2Cl)c1C(=O)N1CCC[C@H]1c1nc(-c2cccc(Cl)c2C)no1 [Ref 7] | 593 | 529 |
| Cc1onc(-c2ccccc2Cl)c1C(=O)N1CCC[C@H]1c1noc(-c2cccc(Cl)c2C)n1 [Ref 8] | > 21800 | > 26200 |
| Cc1onc(-c2ccccc2Cl)c1C(=O)N1CCC[C@H]1c1nnc(-c2cccc(Cl)c2C)o1 [Ref 9] | > 21800 | 11100 |
| Cc1onc(-c2ccccc2Cl)c1C(=O)N1CCC[C@H]1c1nc(-c2ccccc2OC(F)(F)F)no1 [Ref 10] | 2190 | 782 |
| Cc1cc(C)cc(-c2noc([C@@H]3CCCN3C(=O)c3cc(C)ccc3-n3nccn3)n2)c1 [compound 11, {(S)-2-[3-(3,5-Dimethyl-phenyl)-[1,2,4]oxadiazol-5-yl]-pyrrolidin-1-yl}-(5-methyl-2-[1,2,3]triazol-2-yl-phenyl)-methanone] | 6 | 58 |
| Cc1cc(C)nc(-c2noc([C@@H]3CCCN3C(=O)c3cc(C)ccc3-n3nccn3)n2)c1 [compound 12, {(S)-2-[3-(4,6-Dimethyl-pyridin-2-yl)-[1,2,4]oxadiazol-5-yl]-pyrrolidin-1-yl}-(5-methyl-2-[1,2,3]triazol-2-yl-phenyl)-methanone] | 816 | 796 |
| Cc1ccc(-n2nccn2)c(C(=O)N2CCC[C@H]2c2nc(-c3cccc(C)c3C)no2)c1 [compound 13, {(S)-2-[3-(2,3-Dimethyl-phenyl)-[1,2,4]oxadiazol-5-yl]-pyrrolidin-1-yl}-(5-methyl-2-[1,2,3]triazol-2-yl-phenyl)-methanone] | 13 | 70 |
| Cc1ccc(-n2nccn2)c(C(=O)N2CCC[C@H]2c2nc(-c3cccc(F)c3)no2)c1 [compound 14, {(S)-2-[3-(3-Fluoro-phenyl)-[1,2,4]oxadiazol-5-yl]-pyrrolidin-1-yl}-(5-methyl-2-[1,2,3]triazol-2-yl-phenyl)-methanone] | 295 | 392 |
| Cc1ccc(-n2nccn2)c(C(=O)N2CCC[C@H]2c2nc(-c3c[nH]c4ccccc34)no2)c1 [compound 15, {(S)-2-[3-(1H-Indol-3-yl)-[1,2,4]oxadiazol-5-yl]-pyrrolidin-1-yl}-(5-methyl-2-[1,2,3]triazol-2-yl-phenyl)-methanone] | 8 | 21 |
